Results published in US9814787B2, “Luciferin amides” (University of Massachusetts, priority 2013, dated 2017).
Entries after “also recorded” stand apart in the source; their conditions may differ.

Assays:
[1] = target: T1, FAAH (Homo sapiens, UniProt O00519); test: In vitro FAAH assay: luciferin amide treated with recombinant FAAH, then R218K luciferase, bioluminescence; type: biochemical; conditions: 50 μM luciferin amide, 10 minutes at room temperature, R218K luciferase 3 μg/mL
T1 construct: purchased Cayman Chemical
T1 sequence (O00519 1-579): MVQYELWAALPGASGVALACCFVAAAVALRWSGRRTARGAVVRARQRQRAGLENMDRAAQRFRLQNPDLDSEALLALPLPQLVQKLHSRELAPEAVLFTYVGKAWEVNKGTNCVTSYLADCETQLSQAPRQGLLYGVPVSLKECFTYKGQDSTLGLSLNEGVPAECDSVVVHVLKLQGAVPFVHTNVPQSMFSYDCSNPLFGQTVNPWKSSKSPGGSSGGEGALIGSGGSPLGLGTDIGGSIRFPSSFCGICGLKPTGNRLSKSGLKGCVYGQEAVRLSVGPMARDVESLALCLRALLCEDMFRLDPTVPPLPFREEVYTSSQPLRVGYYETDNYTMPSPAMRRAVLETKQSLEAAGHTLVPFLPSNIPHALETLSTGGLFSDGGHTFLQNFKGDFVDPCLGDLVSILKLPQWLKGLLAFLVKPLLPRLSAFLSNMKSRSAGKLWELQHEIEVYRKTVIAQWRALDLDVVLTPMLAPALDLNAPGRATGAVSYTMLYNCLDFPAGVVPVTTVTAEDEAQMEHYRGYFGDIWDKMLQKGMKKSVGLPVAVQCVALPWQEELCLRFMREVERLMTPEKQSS
Description: Recombinant FAAH, FAAH assay buffer, and FAAH inhibitors URB-597, PF-750, and PF-3845 were purchased from Cayman Chemical.
Bioluminescence assays were performed in either a Turner Veritas luminometer or a Xenogen IVIS-100 imaging system. For Veritas experiments, white 96-well plates were used (Costar 3912). For IVIS experiments, black 96-well plates were used (Costar 3915).
Luciferin amides (50 μM) were treated with FAAH and FAAH buffer (Cayman Chemical) in the presence or absence of 50 μM FAAH inhibitor URB-597 or 50 μM luciferase inhibitor 2-(4′-methoxyphenyl)benzothiazole. After 10 minutes at room temperature, R218K mutant firefly luciferase was added at a concentration of 3 μg/mL and bioluminescence was detected on a Turner Veritas luminometer.
Four luciferin amides (50 μM), i.e., Compounds 1, 9, 10, and 25, were treated with a buffer alone, a buffer containing FAAH, a buffer containing FAAH+50 μM URB-597 (i.e., a FAAH inhibitor), or a buffer containing FAAH+50 μM luciferase inhibitor 2-(4′-methoxyphenyl)benzothiazole. After 10 minutes at room temperature, R218K luciferase was added at a concentration of 3 μg/mL and bioluminescence was detected on a Turner Veritas.
Three luciferin amides (50 μM), i.e., Compounds 2, 9, and 25, were treated with a buffer alone, a buffer containing FAAH, a buffer containing FAAH 1:10 (i.e., a ten-fold dilution of FAAH), a buffer containing pig liver esterase (PLE), or a buffer containing PLE 1:10 (i.e., a ten-fold dilution of PLE). After one hour at room temperature, R218K luciferase was added at a concentration of 3 μg/mL and bioluminescence was detected on a Turner Veritas.

[2] = test system: live CHO cells expressing R218K luciferase; test: Intact cell FAAH assay, light emission from live CHO cells expressing R218K luciferase; type: cell-based, Chinese hamster
Description: (§1) Chinese hamster ovary-K1 (CHO-K1) cells were grown in a CO2 incubator at 37° C. with 5% CO2 and were cultured in F-12K Nutrient Mixture (GIBCO) supplemented with 10% fetal bovine serum and 100 U/mL penicillin/streptomycin.
(§2) Wild-type and R218K mutant luciferases were cloned into the BamHI-NotI site of pCDNA 3.1 and transiently transfected into CHO-K1 cells with Lipofectamine 2000 in 96-well tissue culture-treated plates for intact cell assays, or 6-well plates for lysed cell assays. For intact cells, 0.075 μg plasmid/well was transfected; for lysed cells, 2.25 μg plasmid/well was transfected.
[…] The cells were incubated for one hour in the CO2 incubator at 37° C. Cells were then washed with Hank's balanced salt solution (HBSS) and overlaid with 60 μL a luciferin amide substrate in HBSS. Imaging assays were performed 3 minutes after substrate addition, with final substrate concentrations ranging from 0.122 to 250 μM.
Seven luciferin amides, i.e., Compounds 1-4, 9, 10, and 25, were tested in live CHO cells expressing R218K luciferase at various concentrations (i.e., 0.12 μM, 0.25 μM, 0.5 μM, 1 μM, 2 μM, 4 μM, 8 μM, 16 μM, 31 μM, 62 μM, 125 μM, and 250 μM).
(§3) Compound 25 and Compound 10, as well as their corresponding luciferins (i.e., D-Luciferin and CycLuc2, respectively), were tested in live CHO cells expressing wild-type (WT) luciferase or R218K (RK) luciferase at various concentrations (i.e., 0.125 μM, 0.25 μM, 0.5 μM, 1 μM, 2 μM, 4 μM, 8 μM, 16 μM, 31 μM, 62 μM, 125 μM, and 250 μM).

[3] = test system: live CHO cells expressing wild-type (WT) luciferase; test: Intact cell FAAH assay, light emission from live CHO cells expressing wild-type luciferase; type: cell-based, Chinese hamster; conditions: all concentration levels
Description: as §1, §2
Medium was removed from transfected CHO cells and replaced with 60 μL Optimem with or without a FAAH inhibitor (10 μM). The cells were incubated for one hour in the CO2 incubator at 37° C. Cells were then washed with Hank's balanced salt solution (HBSS) and overlaid with 60 μL a luciferin amide substrate in HBSS. Imaging assays were performed 3 minutes after substrate addition, with final substrate concentrations ranging from 0.122 to 250 μM.
as §3

[4] = test system: FVB mice expressing luciferase in brain tissue; test: In vivo bioluminescence imaging in brains of FVB mice injected with AAV9-luc+ in the striatum; conditions: doses 200-fold and 1000-fold lower than standard D-luciferin dose
Description: FVB mice were injected with AAV9-luc+ in the brain striatum. Bioluminescence assays were performed approximately nine months after AAV injection. Each luciferin amide was diluted into PBS to the indicated concentration from a 50 mM DMSO stock solution and filtered (0.22 μm) prior to intraperitoneally injection (0.1 mL per mouse). Mice were anesthetized with isoflurane (2% in 1 L/min oxygen) and images acquired on a Xenogen IVIS 100 imaging system and analyzed with Living Image software.
Certain luciferin amides described herein were tested to determine whether they would image well in live mice. For these studies, FVB mice were injected with adeno-associated virus 9 (AAV9)-luciferase constructs into the brain striatum.
Bioluminescence imaging (BLI) in the brain is more challenging than imaging in the rest of the organism, in part because a luciferase substrate (i.e., a luciferin) must cross the blood-brain barrier. Therefore, the ability of a synthetic luciferin (i.e., Compound 9's corresponding luciferin (CycLuc1)) to allow bioluminescence imaging in these mice, as compared to the native firefly luciferase substrate (i.e., D-luciferin) was first tested. Specifically, each substrate was injected intraperitoneally (IP) in PBS at a volume of 0.1 mL, D-luciferin being at a concentration of 100 mM and CycLuc1 being at a concentration of 5 mM. […] CycLuc1 was then injected at a 320-fold lower dose (0.06 mL of 0.5 mM) than D-luciferin.
Specifically, Compound 9 (i.e., CycLuc1 amide) was injected at 0.5 mM in 0.5% DMSO/PBS (0.06 mL).
In this figure, mice in the top row were treated with luciferin amides in the amounts indicated in the figure, and the mice in the bottom row were the same mice that were imaged one day later using a standard dose of D-luciferin.

increase in bioluminescence signal on addition of FAAH versus buffer [1]: 139 fold
SMILES: CN1CCc2cc3nc(C4=N[C@@H](C(N)=O)CS4)sc3cc21 [Compound 10, (S)-4,5-dihydro-2-(6,7-dihydro-5-methyl-5H-thiazolo[4,5-f]indol-2-yl)thiazole-4-carboxamide]
effect of FAAH inhibitors URB-597, PF-750 and PF-3845 on light output ([2]; 50 μM FAAH inhibitor): complete inhibition | light emission relative to the corresponding luciferin (CycLuc2) ([2]; all concentrations tested, 0.12 to 250 μM): greater light emission than its corresponding luciferin; also recorded: greater light output than cells treated with Compound 10's corresponding luciferin | light output relative to other substrate-luciferase combinations ([2]; concentrations above 30 μM): only exceeded by cells expressing the wild-type luciferase and treated with D-luciferin | light emission relative to other substrate-luciferase combinations ([2]; substrate concentrations below 30 μM): higher light emission than all other substrate-luciferase combinations | light output relative to the corresponding luciferin (CycLuc2) [3]: greater light output than cells treated with Compound 10's corresponding luciferin | bioluminescence signal higher than standard D-luciferin imaging conditions [4]: 10 fold
